From ChEMBL document CHEMBL1145039, “Synthesis and biological evaluation of thiol-based inhibitors of glutamate carboxypeptidase II: discovery of an orally active GCP II inhibitor” (J Med Chem, 2003)
Each block holds one molecule with its values, some of them ahead of it.

What was measured:
[1] = Half life after orally administered dose of 10 mgkg in rats; assay type: ADME, organism-based; set-up: dose 10 mgkg, route oral; conditions: rat, in vivo, po, 10 mg/kg
[2] = Pharmacokinetic constant Area under curve(AUC) was determined after orally administered dose of 10 mgkg in rats; assay type: ADME, organism-based; set-up: dose 10 mgkg, route oral; conditions: rat, in vivo, po, 10 mg/kg
[3] = Half life after intravenously administered dose of 10 mgkg in rats; assay type: ADME, organism-based; set-up: dose 10 mgkg, route intravenous; conditions: rat, in vivo, iv, 10 mg/kg
[4] = Pharmacokinetic constant(Tmax) after orally administered dose of 10 mgkg in rats; assay type: ADME, organism-based; set-up: dose 10 mgkg, route oral; conditions: rat, in vivo, po, 10 mg/kg
[5] = Plasma concentration was determined after orally administered dose of 10 mgkg in rats; assay type: ADME, organism-based; set-up: dose 10 mgkg, route oral; conditions: rat, po, 10 mg/kg
[6] = Pharmacokinetic constant Area under curve(AUC) was determined after intravenously administered dose of 10 mgkg in rats; assay type: ADME, organism-based; set-up: dose 10 mgkg, route intravenous; conditions: rat, in vivo, iv, 10 mg/kg
[7] = molecular target: T1, Glutamate carboxypeptidase 2 (Homo sapiens, UniProt Q04609);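 for IC50: inhibition of binding of tritium-labelled N-acetyl-L-aspartyl-L-glutamate to the enzyme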
Description: Inhibition of N-acetyl-L-aspartyl-[3H]L-glutamate binding to glutamate carboxypeptidase II (GCP II)

[8] = Bioavailability after orally administered dose of 10 mgkg in rats; assay type: ADME, organism-based; conditions: rat, in vivo, po
[9] = molecular target: T1, Glutamate carboxypeptidase 2; remark: listed apart in the source
Description: In vitro inhibitory activity against glutamate carboxypeptidase II (GCP II) using N-acetyl-L-aspartyl-[3H]L-glutamate as a substrate

T1 sequence (Q04609 whole entry): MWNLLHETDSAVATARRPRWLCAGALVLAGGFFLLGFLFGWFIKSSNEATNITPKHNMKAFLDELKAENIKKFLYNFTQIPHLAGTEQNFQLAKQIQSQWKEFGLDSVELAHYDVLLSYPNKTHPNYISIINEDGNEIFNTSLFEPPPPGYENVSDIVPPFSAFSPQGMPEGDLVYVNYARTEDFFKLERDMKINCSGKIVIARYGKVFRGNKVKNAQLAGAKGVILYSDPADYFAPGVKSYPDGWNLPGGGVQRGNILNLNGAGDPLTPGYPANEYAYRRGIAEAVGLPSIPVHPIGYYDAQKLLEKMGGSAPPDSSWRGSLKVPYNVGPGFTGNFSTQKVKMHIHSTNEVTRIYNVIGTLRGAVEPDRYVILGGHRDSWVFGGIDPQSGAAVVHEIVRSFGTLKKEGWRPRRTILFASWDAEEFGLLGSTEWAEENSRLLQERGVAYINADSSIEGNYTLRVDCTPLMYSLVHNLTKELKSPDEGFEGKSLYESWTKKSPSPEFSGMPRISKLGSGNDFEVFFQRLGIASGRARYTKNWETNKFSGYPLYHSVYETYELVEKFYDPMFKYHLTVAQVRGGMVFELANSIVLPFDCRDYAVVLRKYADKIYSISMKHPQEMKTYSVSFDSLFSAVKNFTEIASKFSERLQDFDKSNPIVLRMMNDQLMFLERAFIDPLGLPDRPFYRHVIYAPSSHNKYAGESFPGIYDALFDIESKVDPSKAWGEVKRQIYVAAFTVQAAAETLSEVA

half-life [1]: 116 min
AUC [2]: 53 ng·h/mL
half-life [3]: 22.2 min
Tmax [4]: 54 min
Cmax [5]: 44 ng/mL
AUC [6]: 190 ng·h/mL
IC50 [7]: 3100 nM
SMILES: O=C(O)CCC(CCCSSCCCC(CCC(=O)O)C(=O)O)C(=O)O (stereo not given)

half-life [1]: 70.8 min
AUC [2]: 1820 ng·h/mL
half-life [3]: 63 min
bioavailability [8]: 71%
Tmax [4]: 9.6 min
Cmax [5]: 2230 ng/mL
AUC [6]: 2550 ng·h/mL
SMILES: O=C(O)CCC(CCCS)C(=O)O (stereo not given)

IC50 [7]: 580 nM
SMILES: O=C(O)CCC(CCS)C(=O)O (stereo not given)

IC50 [7]: 1100 nM
SMILES: O=C(O)CCC(CCCCS)C(=O)O (stereo not given)

IC50 [7]: 1400 nM
SMILES: O=C(O)CCCCS

IC50 [7]: 2600 nM
SMILES: O=C(O)CCC(CCCCCS)C(=O)O (stereo not given)

Ki [9]: 11 nM
SMILES: O=C(O)C(CS)Cc1ccccc1 (stereo not given)

IC50 [7]: > 10000 nM
SMILES: O=C(O)CCC(CCCSC(c1ccccc1)(c1ccccc1)c1ccccc1)C(=O)O (stereo not given)

IC50 [7]: 6500 nM
SMILES: CSCCCC(CCC(=O)O)C(=O)O (stereo not given)

SMILES: O=C(O)CCC(C(=O)O)P(=O)(O)O (stereo not given)
IC50 [7]: 1400 nM

IC50 [7]: 2600 nM
SMILES: O=C(O)CCC(S)C(=O)O (stereo not given)

IC50 [7]: 1200 nM
SMILES: O=C(O)CCC(CCP(=O)(O)O)C(=O)O (stereo not given)

IC50 [7]: 6000 nM
SMILES: O=C(O)CCC(CS)C(=O)O (stereo not given)
